Results as given in patent US20100305315A1, “Process for the preparation of 2-(primary/secondary amino)hydrocarbyl)-carbamoyl-7-oxo-2,6-diaza-bicyclo [3.2.0.]heptane-6-sulfonic acid derivatives” (Basilea Pharmaceutica AG, priority 2007, published 2010).

Experiment: physchem
Settings: 25 °C, organic solvent or mixture

With `O=C1[C@H]2NCC[C@H]2N1S(=O)(=O)O` [(1S,5R)-7-oxo-2,6-diaza-bicyclo[3.2.0]heptane-6-sulfonic acid] as the compound, how does the solubility read?
Its solubility is ≤ 200 mg/mL.
